Laboratory results taken from patent US9795619B2, “Pharmaceutical compositions” (priority 2012, dated 2017).
Values belong to the molecule of their own block, whether it stands above or below them.

Experiments:
HIV [1] = conditions: cited from earlier work
[2] = LAP Rat PK study, SQ and IM injections (IV values given for reference); conditions: in vivo, Sprague-Dawley rats; for Cmax / Tmax / half-life: n=3
Procedure: Injections were made in Sprague-Dawley rats SQ and IM at 5 and 20 mg/kg doses with T1/2, Cmax, Tmax, and AUC being measured.

HIV [3] = test: human protein adjusted IC90 (reference line in FIG. 1 and FIG. 2); type: cell-based
[4] = LAP Rat PK study, SQ and IM injections (IV values given for reference); parameters: species or system Sprague-Dawley rats; conditions: Sprague-Dawley, in vivo, rat (FIG. 1)
[5] = LAP Dog PK study, SQ and IM injections (IV values given for reference); parameters: species or system Beagle dogs; conditions: in vivo
[6] = as above; conditions: in vivo, dose 5 mg/kg, Beagle dogs
Procedure: Injections were also made in Beagle dogs SQ and IM at 5 and 20 mg/kg doses with T1/2, Cmax, Tmax, and AUC measured.

[7] = dog, sc, SQ, dose 2.5 mg/kg, Beagle dogs, n=3
[8] = dog, IM, dose 2.5 mg/kg, Beagle dogs, n=3

Compound: C=C(C)[C@@H]1CC[C@]2(C(=O)O)CC[C@]3(C)[C@H](CC[C@@H]4[C@@]5(C)CC[C@H](OC(=O)CC(C)(C)C(=O)O)C(C)(C)[C@@H]5CC[C@]43C)[C@@H]12 [Bevirimat]
reduced HIV viral load by a mean of (HIV [1]; patients with trough levels >=20 μg/mL and without key baseline Gag polymorphisms at Q369, V370 or T371): 1.3 log10/mL | HIV viral load reduction versus patients without Gag polymorphisms (HIV [1]; users with Gag polymorphisms at Q369, V370 or T371): significantly lower load reductions

Cmax ([2]; IM, dose 5 mg/kg): 100 ± 7.8 ng/mL | Tmax ([2]; IM, dose 5 mg/kg): 5.3 ± 2.3 h | half-life ([2]; IM, dose 5 mg/kg): 149 h | AUC(0-t) ([2]; IM, dose 5 mg/kg, t printed as '= days' (no number)): 7700 ng·h/mL | Cmax ([2]; IM, dose 20 mg/kg): 178 ± 56.9 ng/mL | Tmax ([2]; IM, dose 20 mg/kg): 8 ± 4 h | half-life ([2]; IM, dose 20 mg/kg): 298 h | AUC(0-t) ([2]; IM, dose 20 mg/kg, t = 42 days): 24900 ng·h/mL | Cmax ([2]; sc, SQ, dose 5 mg/kg): 170 ± 9.2 ng/mL | Tmax ([2]; sc, SQ, dose 5 mg/kg): 6.7 ± 2.3 h | half-life ([2]; sc, SQ, dose 5 mg/kg): 120 h | AUC(0-t) ([2]; sc, SQ, dose 5 mg/kg, t = 24 days): 8000 ng·h/mL | Cmax ([2]; sc, SQ, dose 20 mg/kg): 285 ± 48.4 ng/mL | Tmax ([2]; sc, SQ, dose 20 mg/kg): 6.7 ± 2.3 h | half-life ([2]; sc, SQ, dose 20 mg/kg): 463 h | AUC(0-t) ([2]; sc, SQ, dose 20 mg/kg, t = 57 days): 23900 ng·h/mL | human protein adjusted IC90 (HIV [3]): 4.31 ng/mL | AUC(0-t) ([4]; read-out: AUC0-24 IV): 2960 ng·h/mL | half-life ([4]; read-out: T1/2 IV (converted)): 3.4 h | AUC(0-t) ([5]; Beagle, IV, dog (FIG. 2), read-out: AUC0-24 IV): 4150 ng·h/mL | half-life ([5]; Beagle, IV, dog (FIG. 2), read-out: T1/2 IV (converted)): 6.9 h | Cmax [5, 7]: 38 ± 11 ng/mL | Tmax [5, 7]: 144 h | half-life ([5]; dog, sc, SQ, dose 2.5 mg/kg, Beagle dogs, n=3, read-out: T1/2 (converted)): 96 h | AUC(0-t) ([5]; dog, sc, SQ, dose 2.5 mg/kg, Beagle dogs, t = 22 days, read-out: AUC0-t): 7900 ng·h/mL | Cmax [5, 8]: 59.3 ± 23.2 ng/mL | Tmax [5, 8]: 80 ± 13.9 h | half-life ([5]; dog, IM, dose 2.5 mg/kg, Beagle dogs, n=3, read-out: T1/2 (converted)): 72 h | AUC(0-t) ([5]; dog, IM, dose 2.5 mg/kg, Beagle dogs, t = 17 days, read-out: AUC0-t): 8600 ng·h/mL | Tmax ([5]; dog, IM, dose 5 mg/kg, Beagle dogs, n=3): 128 ± 27.7 h | Cmax ([6]; IM, n=3): 69.7 ± 7.2 ng/mL | half-life ([6]; IM, n=3): 118 h | AUC(0-t) ([6]; IM, t = 36 days): 16200 ng·h/mL | Cmax ([6]; sc, SQ, n=3): 59 ± 14.5 ng/mL | Tmax ([6]; sc, SQ, n=3): 208 ± 55.4 h | half-life ([6]; sc, SQ, n=3): 127 h | AUC(0-t) ([6]; sc, SQ, t = 40 days): 17400 ng·h/mL
Compound: CC(C)C1=C2[C@H]3CC[C@@H]4[C@@]5(C)CC[C@H](OC(=O)CC(C)(C)C(=O)O)C(C)(C)[C@@H]5CC[C@@]4(C)[C@]3(C)CC[C@@]2([C@@H](O)CN(CCN(C)C)Cc2ccc(Cl)cc2)CC1=O [compound of Formula I, 4-(((3aR,5aR,5bR,7aR,9S,11aR,11bR,13aS)-3a-((R)-2-((4-Chlorobenzyl)(2-(dimethylamino)ethyl)amino)-1-hydroxyethyl)-1-isopropyl-5a,5b,8,8,11a-pentamethyl-2-oxo-3,3a,4,5,5a,5b,6,7,7a,8,9,10,11,11a,11b,12,13,13a-octadecahydro-2H-cyclopenta[a]chrysen-9-yl)oxy)-2,2-dimethyl-4-oxobutanoic acid]
